Reference: patent US20230158025A1 (UNIVERSITY OF UTAH RESEARCH FOUNDATION, priority 2020, published 2023)
Where two headings read alike, the source gives them in different places.

Legend:
[1] = target: recombinant mouse GALK1 (Mus musculus, UniProt Q9R0N0); assay: mGALK1 biochemical activity assay (Kinase-Glo Plus, ATP depletion)
Outline: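 Recombinant GALK1 (5 nM) with 100 μM galactose; GALK1 turnover read as ATP depletion by Kinase-Glo Plus luminescence. Reaction ran 1 h at room temperature before detection reagent was added.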

[2] = target: recombinant human GALK1 (Homo sapiens, UniProt P51570); assay: hGALK1 biochemical activity assay (Kinase-Glo Plus, ATP depletion)
Chain of recombinant human GALK1 (P51570 whole entry): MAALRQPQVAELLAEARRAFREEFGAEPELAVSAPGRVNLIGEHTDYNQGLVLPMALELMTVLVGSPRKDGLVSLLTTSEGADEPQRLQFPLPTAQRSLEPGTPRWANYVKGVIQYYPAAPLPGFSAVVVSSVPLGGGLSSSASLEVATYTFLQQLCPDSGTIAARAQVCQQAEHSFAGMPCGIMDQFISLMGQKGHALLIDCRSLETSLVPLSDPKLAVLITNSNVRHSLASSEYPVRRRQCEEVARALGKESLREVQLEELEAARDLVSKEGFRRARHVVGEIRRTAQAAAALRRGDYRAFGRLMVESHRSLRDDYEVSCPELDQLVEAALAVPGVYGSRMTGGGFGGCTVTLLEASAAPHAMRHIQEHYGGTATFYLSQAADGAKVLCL
Outline: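 Turnover is measured as ATP depletion by Kinase-Glo Plus luminescence after a 1 h room-temperature reaction. Compounds span 11 concentrations, 57.4 μM–0.97 nM, in final 20 mM HEPES pH 8.0 with 5 mM MgCl2. The substrate solution held 35 μM ATP; the added solution held 5 nM human or mouse GALK1 and 100 μM galactose.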

[3] = PAMPA permeability
[4] = aqueous kinetic solubility
[5] = rat microsomal stability (RLM)
[6] = recombinant mouse GALK1, Kinase-Glo Plus ATP depletion, read-out: mGALK
[7] = recombinant human GALK1, Kinase-Glo Plus ATP depletion, read-out: hGALK
[8] = recombinant mouse GALK1, Kinase-Glo Plus ATP depletion, bracketed figure in the cell, e.g. (−1.2), is not defined in the text shown, read-out: mGALK
[9] = recombinant human GALK1, Kinase-Glo Plus ATP depletion, bracketed figure in the cell, e.g. (−1.2), is not defined in the text shown, read-out: hGALK
[10] = microsomal stability half-life, minutes
[11] = Tables 2-15, 35 μM ATP, 100 μM galactose, 1 h, bracketed figure after some values is undefined and not reported, read-out: mGALK IC50
[12] = Tables 2-15, 35 μM ATP, 100 μM galactose, 1 h, bracketed figure after some values (e.g. −1.2) is undefined and not reported, read-out: hGALK IC50

Chain of recombinant mouse GALK1 (Q9R0N0 whole entry): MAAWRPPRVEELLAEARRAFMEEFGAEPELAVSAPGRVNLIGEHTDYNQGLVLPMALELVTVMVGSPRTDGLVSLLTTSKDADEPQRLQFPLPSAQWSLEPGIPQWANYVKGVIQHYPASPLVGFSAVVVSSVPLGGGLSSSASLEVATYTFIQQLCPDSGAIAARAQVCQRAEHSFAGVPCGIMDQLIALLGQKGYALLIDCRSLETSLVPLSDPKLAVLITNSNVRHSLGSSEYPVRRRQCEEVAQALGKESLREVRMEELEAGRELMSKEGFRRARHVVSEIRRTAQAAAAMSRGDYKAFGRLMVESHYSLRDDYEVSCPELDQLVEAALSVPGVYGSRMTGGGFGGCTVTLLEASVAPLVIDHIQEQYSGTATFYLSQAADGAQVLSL

SMILES | IC50 [1, 6] [µM] | IC50 [2, 7] [µM] | Perm. (1 × 10^−6 cm/sec) [3] | Sol. [4] [µg/mL] | Metab. Stabil. (m) ([5]; microsomal half-life) | IC50 [1, 8] [µM] | IC50 [2, 9] [µM] | Perm. (1 × 10^−6 cm/sec) ([3]; PAMPA) | Sol. ([4]; aqueous kinetic solubility) [µg/mL] | Metab. Stabil. (m) [5, 10] [m] | mGALK (μM) ([1]; recombinant mouse GALK1, Kinase-Glo Plus ATP depletion) | hGALK (μM) ([2]; recombinant human GALK1, Kinase-Glo Plus ATP depletion) | Metab. Stabil. (m) ([5]; microsomal stability half-life) | IC50 [1, 11] [µM] | IC50 [2, 12] [µM]
CC1=C(C(=O)Nc2cc(C(=O)O)ccn2)C(c2ccc(-n3ccnc3)cc2Cl)N=C(Nc2nc3ccc(F)cc3o2)N1 (centres unmarked) [Compound 74, 2-(4-(2-chloro-4-(1H-imidazol-1-yl)phenyl)-2-((6-fluorobenzo[d]oxazol-2-yl)amino)-6-methyl-1,4-dihydropyrimidine-5-carboxaido)isonicotinic acid] | 0.97 | 0.12 | <1 1 × 10^−6 cm/sec | >87 | >30 |  |  |  |  |  |  |  |  |  | 
O=C(O)CNC(=O)C1CC(=O)C2=C(C1)NC(Nc1nc3ccccc3o1)=NC2c1ccccc1Cl (centres unmarked) [Compound 283, (2-(benzo[d]oxazol-2-ylamino)-4-(2-chlorophenyl)-5-oxo-1,4,5,6,7,8-hexahydroquinazoline-7-carbonyl)glycine] |  |  |  |  |  | 4.85 | 3.43 | <1 1 × 10^−6 cm/sec | 58.23 | >30 |  |  |  |  | 
O=C1CC(C(=O)Nc2nncs2)CC2=C1C(c1ccccc1Cl)N=C(Nc1nc3ccccc3o1)N2 (centres unmarked) [Compound 281, 2-(benzo[d]oxazol-2-ylamino)-4-(2-chlorophenyl)-5-oxo-N-(1,3,4-thiadiazol-2-yl)-1,4,5,6,7,8-hexahydroquinazoline-7-carboxamide] |  |  |  |  |  | 12.2 | 6.85 | <5 1 × 10^−6 cm/sec | 1.23 | >30 |  |  |  |  | 
COC(=O)c1ccnc(NC(=O)C2=C(C)NC(Nc3nc4ccccc4o3)=N[C@@H]2c2ccccc2Cl)c1 [Compound 207, (S)-methyl 2-(2-(benzo[d]oxazol-2-ylamino)-4-(2-chlorophenyl)-6-methyl-1,4-dihydropyrimidine-5-carboxamido)isonicotinate] |  |  |  |  |  |  |  | 250.4 1 × 10^−6 cm/sec | <1 |  | in- active | in- active | 25.55 |  | 
CC1=C(C(=O)NCc2cnn(C(C)(C)C)c2)C(c2ccc(C)cc2Cl)N=C(Nc2nc3ccc(F)c(N)c3o2)N1 (centres unmarked) [Compound 132, 2-((7-amino-6-fluorobenzo[d]oxazol-2-yl)amino)-N-((1-(tert-butyl)-1H-pyrazol-4-yl)methyl)-4-(2-chloro-4-methylphenyl)-6-methyl-1,4-dihydropyrimidine-5-carboxamide] | 4.32 | 0.77 |  |  |  |  |  | 553.2 1 × 10^−6 cm/sec | <1 |  |  |  | 14.41 | 4.32 | 0.77
CC1=C(C(=O)Nc2nnc(C(F)(F)F)s2)C(c2ccccc2Cl)N=C(Nc2nc3ccccc3o2)N1 (centres unmarked) [Compound 167, 2-(benzo[d]oxazol-2-ylamino)-4-(2-chlorophenyl)-6-methyl-N-(5-(trifluoromethyl)-1,3,4-thiadiazol-2-yl)-1,4-dihydropyrimidine-5-carboxamide] | 21.7 | 12.2 |  |  |  |  |  | 12.6 1 × 10^−6 cm/sec | <1 |  |  |  | >30 | 21.7 | 12.2
CC1=C(C(=O)Nc2cccnc2)C(c2ccccc2Cl)N=C(Nc2nc3ccccc3o2)N1 (centres unmarked) [Compound 149, 2-(benzo[d]oxazol-2-ylamino)-N-(pyridin-3-yl)-4-(2-chlorophenyl)-6-methyl-1,4-dihydropyrimidine-5-carboxamide] | 12.2 | 6.85 |  |  |  |  |  | 513.0 1 × 10^−6 cm/sec | <1 |  |  |  | 20 | 12.2 | 
CC1=C(C(=O)Nc2nnc(-c3cccnc3)s2)C(c2ccccc2Cl)N=C(Nc2nc3ccccc3o2)N1 (centres unmarked) [Compound 180, 2-(benzo[d]oxazol-2-ylamino)-4-(2-chlorophenyl)-6-methyl-N-(5-(pyridin-3-yl)-1,3,4-thiadiazol-2-yl)-1,4-dihydropyrimidine-5-carboxamide] | 9.68 | 3.06 |  |  |  |  |  | <3.7 1 × 10^−6 cm/sec | <1 |  |  |  | >30 | 9.68 | 3.06
CC1=C(C(=O)Nc2cccc(C(=O)O)n2)C(c2ccccc2Cl)N=C(Nc2nc3ccccc3o2)N1 (centres unmarked) [Compound 195, 6-(2-(benzo[d]oxazol-2-ylamino)-4-(2-chlorophenyl)-6-methyl-1,4-dihydropyrimidine-5-carboxamido)picolinic acid] | 6.85 | 4.32 |  |  |  |  |  | <1 1 × 10^−6 cm/sec | 60.0 |  |  |  | >30 | 6.85 | 4.32
O=C1CC(C(=O)NCCO)CC2=C1C(c1ccccc1Cl)N=C(Nc1nc3ccccc3o1)N2 (centres unmarked) [Compound 279, 2-(benzo[d]oxazol-2-ylamino)-4-(2-chlorophenyl)-N-(2-hydroxyethyl)-5-oxo-1,4,5,6,7,8-hexahydroquinazoline-7-carboxamide] |  |  |  |  |  | 5.44 | 4.85 | <2 1 × 10^−6 cm/sec | 28.98 | >30 |  |  |  |  | 
CC1=C(C(=O)Nc2cc(C(=O)O)ccn2)C(c2ccc(C(F)(F)F)cc2Cl)N=C(Nc2nc3ccc(F)cc3o2)N1 (centres unmarked) [Compound 61, 2-(4-(2-chloro-4-(trifluoromethyl)phenyl)-2-((6-fluorobenzo[d]oxazol-2-yl)amino)-6-methyl-1,4-dihydropyrimidine-5-carboxamido)isonicotinic acid] | 10.9 | 1.53 | <1 1 × 10^−6 cm/sec | 19.4 | >30 |  |  |  |  |  |  |  |  | 10.9 | 1.53
CC1=C(C(=O)Nc2nnc(-c3cccnc3)s2)C(c2ccccc2Cl)N=C(Nc2nc3cc(Cl)ccc3o2)N1 (centres unmarked) [Compound 98] | 19.3 | 6.11 | <3.4 1 × 10^−6 cm/sec | <1 | >30 |  |  |  |  |  |  |  |  |  | 
CC1=C(C(=O)NCc2cnn(Cc3ccccc3)c2)C(c2ccc(C)cc2Cl)N=C(Nc2nc3cccc(N)c3o2)N1 (centres unmarked) [Compound 114, 2-((7-aminobenzo[d]oxazol-2-yl)amino)-N-((1-benzyl-1H-pyrazol-4-yl)methyl)-4-(2-chloro-4-methylphenyl)-6-methyl-1,4-dihydropyrimidine-5-carboxamide] | 5.44 | 0.39 | 103.8 1 × 10^−6 cm/sec | <1 | 6.732 |  |  |  |  |  |  |  |  | 5.44 | 0.39
CC1=C(C(=O)Nc2nncs2)C(c2ccccc2C)N=C(Nc2nc3ccccc3o2)N1 (centres unmarked) [Compound 267, 2-(benzo[d]oxazol-2-ylamino)-6-methyl-N-(1,3,4-thiadiazol-2-yl)-4-(o-tolyl)-1,4-dihydropyrimidine-5-carboxamide] |  |  |  |  |  | 21.7 | 12.2 | 83.8 1 × 10^−6 cm/sec | <1 | >30 |  |  |  |  | 
CC1=C(C(=O)Nc2cc(C(=O)O)ccn2)C(c2ccccc2Cl)N=C(Nc2nc3c(N)cccc3o2)N1 (centres unmarked) [Compound 2, 2-(2-((4-aminobenzo[d]oxazol-2-yl)amino)-4-(2-chlorophenyl)-6-methyl-1,4-dihydropyrimidine-5-carboxamido)isonicotinic acid] | 30.6 | 21.7 | <1 1 × 10^−6 cm/sec | >76 | >30 |  |  |  |  |  |  |  |  | 30.6 | 
